The source made the active and inactive calls.
Key:
Escherichia coli [1] = assay: microbe, parasite or virus in culture
[2] = Counterscreen for AddAB inhibitors: absorbance-based bacterial cell-based high throughput dose response assay for inhibitors of bacterial viability. [Related pubchem assays (depositor defined):AID435030, AID449728, AID449731, AID488942, AID488955, AID488956]; format: functional
Exodeoxyribonuclease V = target: T1, Exodeoxyribonuclease V (Escherichia coli (strain K12), UniProt P04993+P07648+P08394); assay: E. coli RecBCD inhibitors, dose response, counter-screen for AddAB inhibitor project, absorbance, V66 E. coli, mutant T4 phage (AID 492957); format: functional, cell-based, Escherichia coli str. K-12 substr. MG1655
T1 sequence (P04993 whole entry): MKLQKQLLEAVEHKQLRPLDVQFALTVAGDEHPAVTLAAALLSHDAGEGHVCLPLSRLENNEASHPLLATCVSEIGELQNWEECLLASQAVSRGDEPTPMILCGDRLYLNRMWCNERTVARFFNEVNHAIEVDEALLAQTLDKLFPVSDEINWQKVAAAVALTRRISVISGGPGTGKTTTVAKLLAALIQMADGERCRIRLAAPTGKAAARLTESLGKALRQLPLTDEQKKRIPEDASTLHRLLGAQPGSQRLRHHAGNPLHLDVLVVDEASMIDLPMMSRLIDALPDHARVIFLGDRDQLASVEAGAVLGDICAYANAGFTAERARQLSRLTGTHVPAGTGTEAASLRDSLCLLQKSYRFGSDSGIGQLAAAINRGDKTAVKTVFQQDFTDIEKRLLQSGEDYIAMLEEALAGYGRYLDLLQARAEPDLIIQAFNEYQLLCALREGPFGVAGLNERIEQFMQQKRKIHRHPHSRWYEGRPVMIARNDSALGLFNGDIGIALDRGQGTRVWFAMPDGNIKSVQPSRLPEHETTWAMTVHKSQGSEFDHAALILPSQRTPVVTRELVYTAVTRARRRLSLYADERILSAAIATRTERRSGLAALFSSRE
T1 sequence (P07648 whole entry): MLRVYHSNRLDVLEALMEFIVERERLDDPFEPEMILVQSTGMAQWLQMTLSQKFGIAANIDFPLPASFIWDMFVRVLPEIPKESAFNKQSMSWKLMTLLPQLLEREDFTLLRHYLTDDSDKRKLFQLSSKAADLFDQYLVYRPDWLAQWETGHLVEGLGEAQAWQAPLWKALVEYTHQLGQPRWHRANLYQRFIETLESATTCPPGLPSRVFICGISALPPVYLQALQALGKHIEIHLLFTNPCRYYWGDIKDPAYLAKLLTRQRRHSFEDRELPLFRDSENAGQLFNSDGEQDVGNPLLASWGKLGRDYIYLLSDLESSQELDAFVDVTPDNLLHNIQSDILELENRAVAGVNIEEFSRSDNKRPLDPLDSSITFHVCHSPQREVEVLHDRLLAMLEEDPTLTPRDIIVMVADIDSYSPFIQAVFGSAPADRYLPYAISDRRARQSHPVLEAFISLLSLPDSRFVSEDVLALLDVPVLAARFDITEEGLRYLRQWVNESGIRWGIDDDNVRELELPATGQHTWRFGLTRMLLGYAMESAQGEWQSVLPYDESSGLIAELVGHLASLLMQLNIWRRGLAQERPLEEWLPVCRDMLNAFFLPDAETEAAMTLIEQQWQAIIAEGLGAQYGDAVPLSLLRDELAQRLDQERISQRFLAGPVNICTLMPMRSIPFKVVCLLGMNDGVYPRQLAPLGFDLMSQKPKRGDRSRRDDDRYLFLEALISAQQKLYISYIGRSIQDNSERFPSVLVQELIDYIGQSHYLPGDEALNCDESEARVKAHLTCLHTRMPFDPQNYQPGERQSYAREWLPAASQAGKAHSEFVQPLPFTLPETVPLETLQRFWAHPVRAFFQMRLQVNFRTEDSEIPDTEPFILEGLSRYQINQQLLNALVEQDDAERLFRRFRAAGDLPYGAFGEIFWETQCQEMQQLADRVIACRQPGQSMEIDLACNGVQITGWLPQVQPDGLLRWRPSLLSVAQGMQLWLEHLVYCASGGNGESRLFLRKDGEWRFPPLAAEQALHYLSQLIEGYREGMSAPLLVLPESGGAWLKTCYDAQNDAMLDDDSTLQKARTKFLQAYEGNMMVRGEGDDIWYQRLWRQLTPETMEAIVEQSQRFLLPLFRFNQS
T1 sequence (P08394 whole entry): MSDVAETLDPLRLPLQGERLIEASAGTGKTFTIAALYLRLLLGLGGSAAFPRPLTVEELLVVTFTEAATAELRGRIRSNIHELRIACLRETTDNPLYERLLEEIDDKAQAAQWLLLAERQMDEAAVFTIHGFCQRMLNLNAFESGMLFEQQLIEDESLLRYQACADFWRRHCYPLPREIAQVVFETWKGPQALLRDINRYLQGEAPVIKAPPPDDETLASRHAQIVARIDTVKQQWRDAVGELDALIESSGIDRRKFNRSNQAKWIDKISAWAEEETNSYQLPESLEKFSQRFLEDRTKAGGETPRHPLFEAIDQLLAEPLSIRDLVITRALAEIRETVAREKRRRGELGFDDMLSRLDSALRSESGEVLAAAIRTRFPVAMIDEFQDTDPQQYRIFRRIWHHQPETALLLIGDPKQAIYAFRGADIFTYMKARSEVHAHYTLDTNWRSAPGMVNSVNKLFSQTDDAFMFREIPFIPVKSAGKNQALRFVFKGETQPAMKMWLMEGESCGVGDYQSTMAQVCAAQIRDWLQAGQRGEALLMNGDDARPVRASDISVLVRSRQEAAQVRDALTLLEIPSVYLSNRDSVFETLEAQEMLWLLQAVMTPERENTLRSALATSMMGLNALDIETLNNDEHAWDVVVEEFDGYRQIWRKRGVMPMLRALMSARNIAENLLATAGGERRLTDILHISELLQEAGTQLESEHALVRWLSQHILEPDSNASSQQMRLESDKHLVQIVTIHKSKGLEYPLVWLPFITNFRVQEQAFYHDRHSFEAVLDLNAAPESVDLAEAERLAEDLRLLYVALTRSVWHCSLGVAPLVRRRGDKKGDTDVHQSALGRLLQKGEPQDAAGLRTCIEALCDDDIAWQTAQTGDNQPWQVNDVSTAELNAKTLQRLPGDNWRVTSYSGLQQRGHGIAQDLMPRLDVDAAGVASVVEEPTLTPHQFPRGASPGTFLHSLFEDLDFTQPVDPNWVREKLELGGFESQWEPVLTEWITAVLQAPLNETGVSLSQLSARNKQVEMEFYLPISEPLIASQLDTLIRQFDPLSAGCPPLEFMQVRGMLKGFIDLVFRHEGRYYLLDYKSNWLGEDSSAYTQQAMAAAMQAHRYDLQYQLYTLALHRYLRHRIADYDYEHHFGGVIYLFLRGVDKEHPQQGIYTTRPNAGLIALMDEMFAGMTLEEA

Escherichia coli [3] = assay: microbe, parasite or virus in culture; remark: listed apart in the source
HEK293 [4] = assay: NOD1 signaling inhibitors, primary screen, cell-based, luminescence, uHTS (AID 1578); format: functional; conditions: Homo sapiens
HEK293 [5] = assay: cells; format: functional, cell-based; conditions: Homo sapiens
HEK293 [6] = assay: NOD2 signaling inhibitors in MDP-stimulated cells, cell-based, uHTS, luminescence (AID 2001); format: functional; conditions: Homo sapiens
[7] = growth suppression of beta-catenin-knockout colon cells, dose response, cell-based, HCT116, human colon tumor (AID 1045); format: functional;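 further: HCT116 colon tumor cells with beta catenin knocked out; cells exposed to compound for 60 hours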
HEK293 [8] = assay: cells; conditions: Homo sapiens
HEK293 [9] = assay: cells; conditions: Homo sapiens; remark: listed apart in the source
[10] = growth suppression of PTEN-null colon cells, dose response, cell-based, HCT116 PTEN knockout (AID 1047); format: functional;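 further: HCT116 colon tumor cells with PTEN knocked out; cells exposed to compound for 60 hours before readout; potency for loss of cell viability measured by luminescence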
HEK293 [11] = assay: cells; format: functional, cell-based; conditions: Homo sapiens; remark: listed apart in the source

For `O=C(c1ccccc1F)N1C(=O)c2cccc3cccc1c23`, the AC50 (Escherichia coli [1]) was 38.6 µM (active).

For `CC(=O)c1ccc(NC(S)=NC(NC(=O)c2ccco2)C(Cl)(Cl)Cl)cc1` (stereo not drawn), the IC50 [2] was > 119 µM (inactive) and the IC50 (Exodeoxyribonuclease V) was > 119 µM (inactive).

With `Cc1cccc(OCC(=O)N2CCOCC2)c1` the AC50 (Escherichia coli [1]) was 37.1 µM (active) and the AC50 (Escherichia coli [3]) was 103 µM (active).

For `Cc1cc(C)cc(NC(=O)/C=C/c2ccc([N+](=O)[O-])s2)c1`, the EC50 (HEK293 [4]) was > 20 µM (inactive), the IC50 (HEK293 [5]) was 9.79 µM (active) and the IC50 (HEK293 [6]) was > 20 µM (inactive). The EC50 [7] was 6.03 µM (active), the EC50 (HEK293 [8]) was > 59.7 µM (inactive) and the EC50 (HEK293 [9]) was > 59.7 µM (inactive). For the same molecule, the EC50 [10] was 3.75 µM (active) and the IC50 (HEK293 [11]) was > 20 µM (inactive).

— ChEMBL document CHEMBL1201862, “PubChem BioAssay data set” (2004)
